Measurements as given in publication PMC11031295 (ChemMedChem, 2024).
pEC50: −log10 of the molar value. “Also recorded” adds a separate entry of the source.

How the values were obtained:
[1] = molecular target: T1, 15N-labeled human ERCC1 fragment containing residues 96-214 (Homo sapiens, UniProt P07992); assay: Backbone chemical shift perturbation mapping by NMR; type: binding; conditions: 0.25 mM ERCC1, titration with compound 1, pH 7.5, 28 °C
T1 sequence (P07992 96-214): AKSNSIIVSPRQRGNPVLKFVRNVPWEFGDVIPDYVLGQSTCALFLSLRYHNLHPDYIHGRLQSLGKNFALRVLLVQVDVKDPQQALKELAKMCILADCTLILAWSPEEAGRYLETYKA

[2] = molecular target: T2, ERCC1/XPA protein-protein interaction (MBP-ERCC1 central domain / fluorescein-labeled XPA67-80 peptide) (Homo sapiens, UniProt P07992); assay: Fluorescence polarization; type: binding
T2 sequence (P07992 96-214): T1 sequence (P07992 96-214)

ERCC1 = conditions: binding pocket on ERCC1; cited from earlier work

Compound	binding site on ERCC1 (in words) [1]	pEC50 [2]	binding affinity to ERCC1 (in words) (ERCC1)
Cc1cc(C)c(C#N)c(SCC(O)c2cccc([N+](=O)[O-])c2)n1 (stereo not drawn) [Compound 1, 2-[2-hydroxy-2-(3-nitrophenyl)ethyl]sulfanyl-4,6-dimethyl-pyridine-3-carbonitrile]	binds within the same site as the truncated XPA67-80 peptide; also recorded: binds to the same site as the truncated XPA 14-mer; also recorded: binds to the same central domain of ERCC1 as truncated XPA peptides	4.68	–
14-mer peptide corresponding to residues 67-80 of XPA: truncated 14-mer peptide corresponding to residues 67-80 of XPA (KIIDTGGGFILEEE; UniProt P23025 67-80, looked up, fragment)	–	–	sub-micromolar affinity
